Consider eight molecules from PubChem BioAssay (NCI).

Test systems include A498 renal; A549 NSCLC; MDA-MB-231 breast; OVCAR-4 ovarian; PC-3 prostate; SF-295 CNS; SNB-19 CNS; SNB-75 CNS; TK-10 renal; UO-31 renal.
Holding throughout (assay): NCI-60 cell line screen, 48 h

Each structure is given as a SMILES string.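 48-hour exposure; five concentrations; linearly interpolated endpoints. At the GI50, growth is halved. The concentration for full growth arrest is given as TGI.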

On to `CCCCCCCC/C=C/CCCCCCCC1=NC(C)(C)CN1CCO`, for which the GI50 in the test on A498 renal is 2.64 µM; in the test with A549 NSCLC it was 1.91 µM; in the test with MDA-MB-231 breast, 1.72 µM; in the test on OVCAR-4 ovarian, 2.8 µM; in the test on PC-3 prostate it was 2.19 µM; in the test with SF-295 CNS it was 1.73 µM. The GI50 is 6.26 µM in the test with SNB-19 CNS, 1.83 µM in the test on SNB-75 CNS, 1.91 µM in the test on TK-10 renal and 2.18 µM with UO-31 renal. Moreover, the TGI worked out at 16.8 µM in the test with A498 renal; 3.56 µM with A549 NSCLC; 3.69 µM with MDA-MB-231 breast; 8.59 µM in the test on OVCAR-4 ovarian; 9.38 µM with PC-3 prostate; 3.36 µM in the test with SF-295 CNS. Also, the TGI with SNB-19 CNS amounted to 21.5 µM; in the test on SNB-75 CNS, 4.26 µM; in the test with TK-10 renal it was 3.94 µM; in the test with UO-31 renal, 6.85 µM.
On to `CCOC(=O)C(C#N)C1=CC(=O)C(=O)c2ccc(O)cc21` (stereo not given), for which the TGI in the test with A498 renal, in the test with A549 NSCLC, with MDA-MB-231 breast, in the test with OVCAR-4 ovarian, in the test with PC-3 prostate and in the test with SF-295 CNS was greater than 100 µM each time. In addition, the TGI in the test with SNB-19 CNS, in the test on SNB-75 CNS, in the test on TK-10 renal and with UO-31 renal was greater than 100 µM throughout.
As to `CSc1nc2c(c(=O)n1C)CN(C1CCCCC1)C(=O)C(c1ccccc1)N2` (stereo not given), the GI50 in the test on A498 renal was 0.292 µM; with A549 NSCLC, 38.4 µM; in the test on MDA-MB-231 breast, 27.4 µM; with OVCAR-4 ovarian, 35.2 µM; with PC-3 prostate, 21.7 µM; with SF-295 CNS, 35.3 µM. Moreover, the GI50 in the test with SNB-19 CNS is 36.7 µM; in the test with SNB-75 CNS, 95.8 µM; in the test with TK-10 renal it was 31.4 µM; in the test on UO-31 renal, 34.1 µM. The TGI with A498 renal is 37.6 µM; in the test on A549 NSCLC, greater than 100 µM; in the test with MDA-MB-231 breast it was greater than 100 µM; with OVCAR-4 ovarian it was greater than 100 µM; with PC-3 prostate, greater than 100 µM; in the test with SF-295 CNS, greater than 100 µM. Moreover, the TGI in the test with SNB-19 CNS, in the test on SNB-75 CNS, with TK-10 renal and in the test on UO-31 renal was greater than 100 µM in each case.
With `c1ccc(CNCCN(CCNCc2ccccn2)Cc2ccc3ccccc3c2)nc1`, the GI50 was 1.86 µM in the test on A498 renal; 2.33 µM with A549 NSCLC; 1.68 µM in the test with MDA-MB-231 breast; 1.88 µM in the test with OVCAR-4 ovarian; 1.92 µM with PC-3 prostate; 1.42 µM in the test on SF-295 CNS. For the same molecule, the GI50 in the test on SNB-19 CNS is 2.68 µM; in the test with SNB-75 CNS, 2.03 µM; in the test on TK-10 renal, 1.36 µM; in the test on UO-31 renal, 0.668 µM. Further, the TGI amounted to 3.71 µM in the test with A498 renal; 5.38 µM in the test with A549 NSCLC; 3.81 µM in the test on MDA-MB-231 breast; 5.3 µM with OVCAR-4 ovarian; 6.13 µM in the test with PC-3 prostate; 3.55 µM in the test with SF-295 CNS. In addition, the TGI in the test on SNB-19 CNS came to 8.95 µM; with SNB-75 CNS, 9.98 µM; in the test on TK-10 renal, 6.58 µM; with UO-31 renal, 2.3 µM.
For the molecule `COC(=O)c1oc2c(C(=O)/C=C/c3ccc(OC)cc3)c(OCCN(C)C)ccc2c1C`, the GI50 is 10.1 µM with A498 renal; 5.08 µM in the test on A549 NSCLC; 8.33 µM in the test on MDA-MB-231 breast; 5.06 µM in the test on OVCAR-4 ovarian; 8.43 µM in the test with PC-3 prostate; 14.2 µM with SF-295 CNS. Moreover, the GI50 was 10.9 µM with SNB-19 CNS, 9.94 µM in the test with SNB-75 CNS, 9.79 µM with TK-10 renal and 5.14 µM in the test on UO-31 renal. Further, the TGI in the test on A498 renal was found to be 22.6 µM; with A549 NSCLC, 23 µM; in the test on MDA-MB-231 breast, 22.9 µM; with OVCAR-4 ovarian, 16.8 µM; in the test with PC-3 prostate, 21.7 µM; with SF-295 CNS, 29.3 µM. Besides, the TGI worked out at 23.5 µM in the test on SNB-19 CNS, 22.2 µM in the test with SNB-75 CNS, 23 µM with TK-10 renal and 18.2 µM in the test on UO-31 renal.
In the case of `Cc1cc(Nc2nc(N[C@@H](C)c3ncc(F)cn3)ncc2Cl)n[nH]1`, the GI50 is 1.85 µM in the test on A498 renal; 29.5 µM in the test with A549 NSCLC; 30.6 µM in the test on MDA-MB-231 breast; 23.2 µM in the test with OVCAR-4 ovarian; 43.7 µM with PC-3 prostate; 35.6 µM in the test with SF-295 CNS. Moreover, the GI50 with SNB-19 CNS was 51.7 µM; in the test with SNB-75 CNS, 8.85 µM; in the test with TK-10 renal, 30 µM; in the test with UO-31 renal, 24.6 µM. For the same molecule, the TGI in the test on A498 renal was 13.1 µM; with A549 NSCLC it was greater than 100 µM; in the test with MDA-MB-231 breast it was greater than 100 µM; in the test on OVCAR-4 ovarian, greater than 100 µM; with PC-3 prostate, greater than 100 µM; in the test with SF-295 CNS, greater than 100 µM. In addition, the TGI in the test on SNB-19 CNS is greater than 100 µM; in the test with SNB-75 CNS it was 36.4 µM; in the test with TK-10 renal it was greater than 100 µM; in the test with UO-31 renal, greater than 100 µM.
Regarding `CC(=O)NNc1nc(C)c(C(/C=C/c2ccccc2O)=N/N=C(N)N)s1`, the TGI with A498 renal, with A549 NSCLC, with MDA-MB-231 breast, in the test on OVCAR-4 ovarian, with PC-3 prostate and in the test with SF-295 CNS was greater than 100 µM each time. The TGI with SNB-19 CNS, in the test on SNB-75 CNS, with TK-10 renal and with UO-31 renal was greater than 100 µM in each case.
As to `NS(=O)(=O)c1cc(C(=O)O)c(O)c2ccccc12`, the TGI in the test on A498 renal, in the test with A549 NSCLC, with MDA-MB-231 breast, in the test with OVCAR-4 ovarian, with PC-3 prostate and in the test with SF-295 CNS was greater than 100 µM in each case. For the same molecule, the TGI with SNB-19 CNS, with SNB-75 CNS, in the test on TK-10 renal and in the test on UO-31 renal was greater than 100 µM throughout.
